US4942155A, “Biosynthetic anthracyclines related to daunorubicin” (Farmitalia Carlo Erba S.p.A., priority 1986, dated 1990)
≈ marks a conversion by molar mass, not a printed value.

Tests used:
[1] = test system: P388 ascitic leukemia; test: In vivo activity against P388 ascitic leukemia in mice; details: for Toxic deaths: macroscopic autopic findings; for MST (T/C %): median survival time, % of untreated controls; for in vivo activity compared with daunorubicin: P388 ascitic leukemia in mice, at dosage levels several times lower
Method: ^(a) Mice were treated i.p. on day 1 after tumor cell inoculation.
^(b) Injected as 1:9 Tween 80:water suspension.
(§1) ^(c) Median survival time expressed as percentage of untreated
^(d) Evaluated on the basis of macroscopic autopic findings.

[2] = test system: Gross leukemia; test: In vivo activity against Gross leukemia in mice; details: for Toxic deaths: macroscopic autoptic findings; for MST (T/C %): median survival time, % of untreated controls
Method: ^(a) Mice were treated i.v. on day 1 after tumor cell i.v.
^(b) Injected as 1:9 Tween 80:water suspension
as §1
^(d) Evaluated on the basis of macroscopic autoptic findings.

[3] = test system: HeLa cells; test: In vitro cytotoxicity on cultured HeLa cells; format: cell-based; details: for IC50: Homo sapiens, exposed for 24 hr then plated, read-out: ID50 (the source's name)
From the text: (§2) The cytotoxic activity of the new anthracyclines, FCE 24366 and FCE 24367 have been tested in vitro on cultured HeLa cells, and P388 leukemia cells sensitive (P 388/S) or resistant (P 388/R) to doxorubicin.
^(a) Cells are exposed to the drugs for 24 hr then plated

[4] = test system: P388/S leukemia cells; test: In vitro cytotoxicity on P388 leukemia cells sensitive to doxorubicin; format: cell-based; details: for IC50: Mus musculus, exposed for 48 hr then plated, read-out: ID50 (the source's name)
From the text: as §2
(§3) ^(b) Cells are exposed to the drugs for 48 hr then plated

[5] = test system: P388/R leukemia cells; test: In vitro cytotoxicity on P388 leukemia cells resistant to doxorubicin; format: cell-based; details: for IC50: Mus musculus, exposed for 48 hr then plated, read-out: ID50 (the source's name); for activity on P 388/R cell line: cross-resistant to most anthracyclines
From the text: as §2, §3

[6] = test system: Streptococcus faecalis ATCC 8043; test: In vitro MIC, standard tube dilution; format: cell-based; details: Enterococcus faecalis, ATCC8043
From the text: (§4) The in vitro minimum inhibitory concentration (MIC) of FCE 24366, FCE 24367 and daunorubicin, determined for some microorganism using the standard tube dilution procedure, are reported in Table 4.

[7] = test system: Staphylococcus aureus 209P; test: In vitro MIC, standard tube dilution; format: cell-based
From the text: as §4

[8] = test system: Sarcina lutea ATCC 9341; test: In vitro MIC, standard tube dilution; format: cell-based; details: Micrococcus luteus, ATCC9341
From the text: as §4

[9] = test system: Escherichia coli 026B6; test: In vitro MIC, standard tube dilution; format: cell-based
From the text: as §4

[10] = test system: Proteus morganii ATCC 25830; test: In vitro MIC, standard tube dilution; format: cell-based; details: Morganella morganii, ATCC25830
From the text: as §4

[11] = test system: Klebeiella pneumoniae ATCC 10031; test: In vitro MIC, standard tube dilution; format: cell-based
From the text: as §4

[12] = test system: Escherichia coli ATCC 11303; test: In vitro MIC, standard tube dilution; format: cell-based; details: ATCC11303
From the text: as §4

[13] = test system: Staphylococcus aureus 153; test: In vitro MIC, standard tube dilution; format: cell-based
From the text: as §4

[14] = test system: Streptococcus pyogenes ATCC 12384; test: In vitro MIC, standard tube dilution; format: cell-based; details: ATCC12384
From the text: as §4

[15] = Solubility; format: physicochemical
[16] = Stability in acidic media; format: physicochemical
[17] = acetone, dioxane, N,N-dimethylformamide, N,N-dimethylsulfoxide
[18] = chloroform, dichloromethane, ethyl acetate, lower alcohols
[19] = ethyl ether, n-hexane, petroleum ether and water

SMILES | IC50 [3] [ng/mL] | IC50 [4] [ng/mL] | IC50 [5] [µg/mL] | MIC [6] [µg/mL] | MIC [7] [µg/mL] | MIC [8] [µg/mL] | MIC [9] [µg/mL] | MIC [10] [µg/mL] | MIC [11] [µg/mL] | MIC [12] [µg/mL] | MIC [13] [µg/mL] | MIC [14] [µg/mL] | in vivo activity compared with daunorubicin [1] | cytotoxic dosage level compared with daunorubicin [3] | cytotoxic dosage level compared with daunorubicin [4] | solubility [15, 17] | solubility [15, 18] | solubility [15, 19] | activity on P 388/R cell line [5] | stability [16] | other results
COc1cccc2c1C(=O)c1c(O)c3c(c(O)c1C2=O)C[C@@](O)(C(C)=O)C[C@@H]3O[C@H]1C[C@H](N)[C@H](O)[C@H](C)O1 [Daunorubicin, daunorubicin] | 19 (≈ 0.036 µM) | 9.5 (≈ 0.018 µM) | 0.75 (≈ 1.42 µM) | > 100 | 6.25 (≈ 11.8 µM) | 1.56 (≈ 2.96 µM) | 6.25 (≈ 11.8 µM) | > 100 | > 100 | 3.12 (≈ 5.91 µM) | 25 (≈ 47.4 µM) | 3.12 (≈ 5.91 µM) |  |  |  |  |  |  |  |  | Toxic deaths ([1]; 2.9 mg/Kg i.p. on day 1): 0/10; MST (T/C %) ([1]; 2.9 mg/Kg i.p. on day 1): 160%; Toxic deaths ([1]; 4.4 mg/Kg i.p. on day 1): 7/10; MST (T/C %) ([1]; 4.4 mg/Kg i.p. on day 1): 150%; Toxic deaths ([2]; 10 mg/Kg i.v. on day 1): 0/9; MST (T/C %) ([2]; 10 mg/Kg i.v. on day 1): 183%; Toxic deaths ([2]; 15 mg/Kg i.v. on day 1): 0/9; MST (T/C %) ([2]; 15 mg/Kg i.v. on day 1): 217%; Toxic deaths ([2]; 22.5 mg/Kg i.v. on day 1): 9/9; MST (T/C %) ([2]; 22.5 mg/Kg i.v. on day 1): 83%
COc1cccc2c1C(=O)c1c(O)c3c(c(O)c1C2=O)C[C@@](O)(C(C)=O)C[C@@H]3O[C@H]1C[C@@H]2NC(C3C(=O)NC(=S)NC3=O)C(C)OC(CC(C)O)O[C@@H]2[C@H](C)O1 (some centres unmarked) [FCE 24367] | 0.7 (≈ 0.000877 µM) | 0.003 (≈ 3.76e-06 µM) | 0.0038 (≈ 0.00476 µM) | 100 (≈ 125 µM) | 6.25 (≈ 7.83 µM) | 0.78 (≈ 0.978 µM) | 12.5 (≈ 15.7 µM) | 100 (≈ 125 µM) | 25 (≈ 31.3 µM) | 3.12 (≈ 3.91 µM) | 6.25 (≈ 7.83 µM) | 6.25 (≈ 7.83 µM) | as active as daunorubicin | several times lower than those of daunorubicin | several times lower than those of daunorubicin | soluble | slightly soluble | barely soluble or insoluble | high activity | unstable | Toxic deaths ([1]; 0.3 mg/Kg i.p. on day 1): 0/10; MST (T/C %) ([1]; 0.3 mg/Kg i.p. on day 1): 145%; Toxic deaths ([1]; 0.45 mg/Kg i.p. on day 1): 1/10; MST (T/C %) ([1]; 0.45 mg/Kg i.p. on day 1): 150%; Toxic deaths ([1]; 0.68 mg/Kg i.p. on day 1): 1/10; MST (T/C %) ([1]; 0.68 mg/Kg i.p. on day 1): 155%
COc1cccc2c1C(=O)c1c(O)c3c(c(O)c1C2=O)C[C@@](O)(C(C)=O)C[C@@H]3O[C@H]1C[C@@H]2NC(C3C(=O)N(C)C(=O)N(C)C3=O)C(C)OC(CC(C)O)O[C@@H]2[C@H](C)O1 (some centres unmarked) [FCE 24366] | 0.09 (≈ 0.000111 µM) | 0.036 (≈ 4.45e-05 µM) | 0.0012 (≈ 0.00148 µM) | 12.5 (≈ 15.4 µM) | 0.78 (≈ 0.963 µM) | 0.19 (≈ 0.235 µM) | 1.56 (≈ 1.93 µM) | 12.5 (≈ 15.4 µM) | 0.78 (≈ 0.963 µM) | 0.39 (≈ 0.482 µM) | 0.78 (≈ 0.963 µM) | 3.12 (≈ 3.85 µM) | as active as daunorubicin | several times lower than those of daunorubicin | several times lower than those of daunorubicin | soluble | slightly soluble | barely soluble or insoluble | high activity | unstable | Toxic deaths ([1]; 0.012 mg/Kg i.p. on day 1): 0/10; MST (T/C %) ([1]; 0.012 mg/Kg i.p. on day 1): 130%; Toxic deaths ([1]; 0.025 mg/Kg i.p. on day 1): 0/10; MST (T/C %) ([1]; 0.025 mg/Kg i.p. on day 1): 135%; Toxic deaths ([1]; 0.05 mg/Kg i.p. on day 1): 0/10; MST (T/C %) ([1]; 0.05 mg/Kg i.p. on day 1): 150%; Toxic deaths ([1]; 0.1 mg/Kg i.p. on day 1): 1/10; MST (T/C %) ([1]; 0.1 mg/Kg i.p. on day 1): 165%; Toxic deaths ([2]; 0.13 mg/Kg i.v. on day 1): 0/9; MST (T/C %) ([2]; 0.13 mg/Kg i.v. on day 1): 117%; Toxic deaths ([2]; 0.20 mg/Kg i.v. on day 1): 0/8; MST (T/C %) ([2]; 0.20 mg/Kg i.v. on day 1): 192%; Toxic deaths ([2]; 0.30 mg/Kg i.v. on day 1): 2/9; MST (T/C %) ([2]; 0.30 mg/Kg i.v. on day 1): 150%; activity against Gross leukemia compared with daunorubicin ([2]; Gross leukemia in mice): activity comparable with that of daunorubicin at remarkably lower dosages
